What was measured:
NIH mice = test: hot plate analgesia assay (Eddy and Leimbach), with and without naloxone; format: in vivo, mouse; details: for ED50 Dose for Hot Plate Analgesia: mice, sc, hot plate 55° C., reaction times over 60 min
Protocol: 107, 385-393, 1953]. NIH mice were dropped onto a hot plate maintained at 55° C. and the reaction time was determined. The criterion for a reaction was kicking the hind leg, attempting to jump out, or shaking a foot and turning and licking it. Reaction time for each mouse was determined at least twice before and 5, 10, 20, 30, 45 and 60 min after administration of compound.

[1] = tested on: dihydromorphine binding sites; test: binding to dihydromorphine binding sites in rodent brain membranes (background statement)
opioid-binding sites = opioid-binding sites (Cavia porcellus, UniProt A0ACM8Q262); details: 1 nM [3H]dihydromorphine, guinea pig cerebral tissue
Protocol: Briefly, cerebral tissue from brains of male Hartley guinea pigs was homogenized in 10 volumes of ice-cold 50 mM Tris-HCl buffer (pH 7.4) for 20 sec. in a Polytron homogenizer at 3000 rpm. After centrifugation at 18,000 G for 10 min., the pellet was reconstructed to the same volume in Tris buffer. […] Samples were chilled to 0° and filtered through glass fiber filters, followed by two washes with 5 ml of ice cold Tris buffer. Radioactivity retained on the filter was determined with a liquid scintillation counter. Nonspecific binding of [^3 H]dihydromorphine was determined in the presence of 100 nM naloxone.

mice = tested on: mice
Protocol: The Straub-tail reaction was assayed by a standard procedure [Aceto, M. D., et. al., Brit. J. Pharmacol. 36, 225-239, 1969].

[2] = Nilsen assay of analgetic activity; details: in vivo

opioid-binding sites, sequence (A0ACM8Q262 1-400): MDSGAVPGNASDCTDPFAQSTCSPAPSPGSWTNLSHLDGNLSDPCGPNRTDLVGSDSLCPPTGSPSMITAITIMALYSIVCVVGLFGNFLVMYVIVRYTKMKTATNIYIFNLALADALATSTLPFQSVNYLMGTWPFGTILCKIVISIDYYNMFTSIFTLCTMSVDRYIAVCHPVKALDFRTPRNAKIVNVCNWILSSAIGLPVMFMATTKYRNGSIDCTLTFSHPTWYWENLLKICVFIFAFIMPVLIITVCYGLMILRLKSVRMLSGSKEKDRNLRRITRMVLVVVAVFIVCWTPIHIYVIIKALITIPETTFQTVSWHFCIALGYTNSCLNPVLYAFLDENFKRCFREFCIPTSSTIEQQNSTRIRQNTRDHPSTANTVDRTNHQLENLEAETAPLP

Row | SMILES | ED50 Dose for Hot Plate Analgesia (NIH mice) [mg/kg] | antagonism of the analgesia by the opioid antagonist naloxone (background statement) (NIH mice; naloxone) | Effect of Naloxone (on analgesia) (NIH mice; naloxone 5 mg/kg sc) | potency relative to morphine in a standard analgetic test (NIH mice; subcutaneously to mice) | affinity for dihydromorphine binding sites [1] | activity at opioid-binding sites in words (opioid-binding sites) | IC50 (opioid-binding sites; 30 min, 25°, pH 7.4) [µM] | Straub-tail reaction elicited by isolated alkaloid (mice; column fractions 108-111, mice) | Straub-tail response (mice; mice, at higher doses for epibatidine (background statement)) | dose that elicited a comparable Straub-tail reaction (mice; mouse, in vivo) [mg/kg] | effect of naloxone on the Straub-tail reaction (mice; mouse, in vivo) | blockade of the Straub-tail response by naloxone (background statement) (mice; opioid-antagonist naloxone) | Analgetic activity in the Nilsen assay [2] | dose required for a greater than 45° arch of tail (Straub-tail reaction) (mice; mouse, in vivo, sc) [mg/kg]
1 | Clc1ccc(C2CC3CCC2N3)cn1 (stereo not drawn) [Epibatidine] | 0.005 | not antagonized | No effect | two-hundred fold more potent than morphine | very low affinity | nearly inactive | 8.8 | elicited the Straub-tail reaction in mice | marked Straub-tail response | 0.02 | only slightly reduced the Straub-tail reaction | not blocked | Analgetic activity also was apparent | 
2 | CN1CC[C@]23c4c5ccc(O)c4O[C@H]2[C@@H](O)C=C[C@H]3[C@H]1C5 [Morphine, reference compound] | 1 |  |  |  |  |  |  |  |  |  |  |  |  | 10

— patent US5462956A, “Epibatidine and derivatives, compositions and methods of treating pain” (priority 1994, dated 1995)
